Data on 9 cell lines can be found in the supplement of paper PMC10307832.

Holding throughout (experiment): relative viability (nuclei count vs DMSO), 5 days (fraction); higher = more cells survive
Compound in experiment [1]: COc1ncc(-c2ccc3nccc(-c4ccnnc4)c3c2)cc1NS(=O)(=O)c1ccc(F)cc1F [Omipalisib] + Nc1nc2[nH]cc(CCc3ccc(C(=O)N[C@@H](CCC(=O)O)C(=O)O)cc3)c2c(=O)[nH]1 [Pemetrexed] (partner 0.2 µM)
The gist of the method:
(§1)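 Dosing by pin tool came one day after lung cancer cell lines were seeded in 1536-well plates, using either one drug or a fixed anchor-drug dose plus five library-drug doses (not always all listed) in √10 steps. After 5 days, nuclei were counted on 4× images. Relative viability is treated-well nuclei count divided by vehicle-well nuclei count, and values are medians of duplicate plates.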

Compound in experiment [2]: COc1ncc(-c2ccc3nccc(-c4ccnnc4)c3c2)cc1NS(=O)(=O)c1ccc(F)cc1F [Omipalisib] + Cc1cc(Nc2cc(N3CCN(C)CC3)nc(Sc3ccc(NC(=O)C4CC4)cc3)n2)n[nH]1 [Tozasertib] (partner 0.1 µM)
In short, it runs like this:
as §1

Compound in experiment [3]: COc1ncc(-c2ccc3nccc(-c4ccnnc4)c3c2)cc1NS(=O)(=O)c1ccc(F)cc1F [Omipalisib] + C[C@@H](Oc1cc(-c2cnn(C3CCNCC3)c2)cnc1N)c1c(Cl)ccc(F)c1Cl [Crizotinib] (partner 1 µM)
The gist of the method:
as §1

Compound in experiment [4]: COc1ncc(-c2ccc3nccc(-c4ccnnc4)c3c2)cc1NS(=O)(=O)c1ccc(F)cc1F [Omipalisib] + O=C(c1cc(Cc2n[nH]c(=O)c3ccccc23)ccc1F)N1CCN(C(=O)C2CC2)CC1 [Olaparib] (partner 8 µM)
The gist of the method:
as §1

Compound in experiment [5]: COc1ncc(-c2ccc3nccc(-c4ccnnc4)c3c2)cc1NS(=O)(=O)c1ccc(F)cc1F [Omipalisib] + NC(=O)Nc1cc(-c2cccc(F)c2)sc1C(=O)N[C@H]1CCCNC1 [AZD7762] (partner 0.2 µM)
In short, it runs like this: as §1

Compound in experiment [6]: COc1ncc(-c2ccc3nccc(-c4ccnnc4)c3c2)cc1NS(=O)(=O)c1ccc(F)cc1F [Omipalisib] + CC1(C)CCC(c2ccc(Cl)cc2)=C(CN2CCN(c3ccc(C(=O)NS(=O)(=O)c4ccc(N[C@H](CCN5CCOCC5)CSc5ccccc5)c(S(=O)(=O)C(F)(F)F)c4)cc3)CC2)C1 [Navitoclax] (partner 0.5 µM)
In short, it runs like this: as §1

As to LCLC-103H, the relative viability came to 0.503 in experiment [1] (first compound 0.0003 µM); 0.411 in experiment [1] (first compound 0.003 µM); 0.405 in experiment [1] (first compound 0.03 µM); 0.406 in experiment [2] (first compound 0.0003 µM); 0.361 in experiment [2] (first compound 0.003 µM); 0.18 in experiment [2] (first compound 0.03 µM). The relative viability in experiment [3] (first compound 0.0003 µM) worked out at 1.07; in experiment [3] (first compound 0.003 µM) it was 0.922; in experiment [3] (first compound 0.03 µM), 0.63; in experiment [4] (first compound 0.0003 µM), 0.781; in experiment [4] (first compound 0.003 µM) it was 0.726; in experiment [4] (first compound 0.03 µM) it was 0.397. Moreover, the relative viability amounted to 0.747 in experiment [5] (first compound 0.0003 µM), 0.623 in experiment [5] (first compound 0.003 µM) and 0.402 in experiment [5] (first compound 0.03 µM).

On to 201T, for which the relative viability in experiment [1] (first compound 0.0003 µM) turned out to be 0.342; in experiment [1] (first compound 0.003 µM) it was 0.309; in experiment [1] (first compound 0.03 µM) it was 0.266; in experiment [2] (first compound 0.0003 µM), 0.883; in experiment [2] (first compound 0.003 µM), 0.894; in experiment [2] (first compound 0.03 µM), 0.473. Also, the relative viability in experiment [3] (first compound 0.0003 µM) turned out to be 0.988; in experiment [3] (first compound 0.003 µM) it was 1.05; in experiment [3] (first compound 0.03 µM) it was 0.731; in experiment [4] (first compound 0.0003 µM), 0.803; in experiment [4] (first compound 0.003 µM), 0.859; in experiment [4] (first compound 0.03 µM) it was 0.526. The relative viability is 0.592 in experiment [5] (first compound 0.0003 µM); 0.516 in experiment [5] (first compound 0.003 µM); 0.459 in experiment [5] (first compound 0.03 µM); 1.21 in experiment [6] (first compound 0.0003 µM); 1.2 in experiment [6] (first compound 0.003 µM); 0.838 in experiment [6] (first compound 0.03 µM).

In the case of NCI-H1792, the relative viability in experiment [1] (first compound 0.0003 µM) was determined as 0.835; in experiment [1] (first compound 0.003 µM) it was 0.319; in experiment [1] (first compound 0.03 µM), 0.103; in experiment [3] (first compound 0.0003 µM) it was 0.971; in experiment [3] (first compound 0.003 µM) it was 0.848; in experiment [3] (first compound 0.03 µM) it was 0.269. In addition, the relative viability came out at 0.382 in experiment [4] (first compound 0.0003 µM); 0.0789 in experiment [4] (first compound 0.003 µM); 0.0824 in experiment [4] (first compound 0.03 µM); 0.467 in experiment [5] (first compound 0.0003 µM); 0.347 in experiment [5] (first compound 0.003 µM); 0.165 in experiment [5] (first compound 0.03 µM). The relative viability in experiment [6] (first compound 0.0003 µM) was found to be 0.583; in experiment [6] (first compound 0.003 µM), 0.515; in experiment [6] (first compound 0.03 µM) it was 0.235.

With LXF-289, the relative viability in experiment [1] (first compound 0.0003 µM) came to 0.938; in experiment [1] (first compound 0.003 µM), 1.05; in experiment [1] (first compound 0.03 µM), 0.804; in experiment [2] (first compound 0.0003 µM) it was 0.21; in experiment [2] (first compound 0.003 µM), 0.0991; in experiment [2] (first compound 0.03 µM), 0.0753. Further, the relative viability in experiment [3] (first compound 0.0003 µM) is 0.846; in experiment [3] (first compound 0.003 µM), 0.924; in experiment [3] (first compound 0.03 µM) it was 0.712; in experiment [4] (first compound 0.0003 µM) it was 0.943; in experiment [4] (first compound 0.003 µM) it was 1.05; in experiment [4] (first compound 0.03 µM) it was 0.455. Also, the relative viability in experiment [5] (first compound 0.0003 µM) turned out to be 1.11; in experiment [5] (first compound 0.003 µM), 1.26; in experiment [5] (first compound 0.03 µM), 0.911; in experiment [6] (first compound 0.0003 µM) it was 0.947; in experiment [6] (first compound 0.003 µM) it was 1; in experiment [6] (first compound 0.03 µM), 0.739.

Take LCLC-97TM1: the relative viability in experiment [1] (first compound 0.0003 µM) is 0.191; in experiment [1] (first compound 0.003 µM), 0.146; in experiment [1] (first compound 0.03 µM), 0.14; in experiment [2] (first compound 0.0003 µM) it was 0.169; in experiment [2] (first compound 0.003 µM), 0.119; in experiment [2] (first compound 0.03 µM), 0.0744. In addition, the relative viability in experiment [3] (first compound 0.0003 µM) amounted to 0.243; in experiment [3] (first compound 0.003 µM), 0.159; in experiment [3] (first compound 0.03 µM), 0.11; in experiment [4] (first compound 0.0003 µM) it was 0.383; in experiment [4] (first compound 0.003 µM), 0.291; in experiment [4] (first compound 0.03 µM) it was 0.0739. Besides, the relative viability in experiment [5] (first compound 0.0003 µM) came to 0.158; in experiment [5] (first compound 0.003 µM), 0.36; in experiment [5] (first compound 0.03 µM), 0.116; in experiment [6] (first compound 0.0003 µM), 0.503; in experiment [6] (first compound 0.003 µM), 0.149; in experiment [6] (first compound 0.03 µM), 0.164.

Consider NCI-H1395, for which the relative viability in experiment [1] (first compound 0.0003 µM) turned out to be 0.737; in experiment [1] (first compound 0.003 µM) it was 0.657; in experiment [1] (first compound 0.03 µM) it was 0.602; in experiment [2] (first compound 0.0003 µM), 0.743; in experiment [2] (first compound 0.003 µM) it was 0.764; in experiment [2] (first compound 0.03 µM) it was 0.506. For the same cell line, the relative viability was 0.501 in experiment [4] (first compound 0.0003 µM); 0.421 in experiment [4] (first compound 0.003 µM); 0.371 in experiment [4] (first compound 0.03 µM); 0.424 in experiment [5] (first compound 0.0003 µM); 0.398 in experiment [5] (first compound 0.003 µM); 0.379 in experiment [5] (first compound 0.03 µM). Moreover, the relative viability in experiment [6] (first compound 0.0003 µM) amounted to 1.35; in experiment [6] (first compound 0.003 µM), 0.991; in experiment [6] (first compound 0.03 µM), 0.665.

As to CAL-12T, the relative viability amounted to 1.17 in experiment [1] (first compound 0.0003 µM); 1.15 in experiment [1] (first compound 0.003 µM); 0.721 in experiment [1] (first compound 0.03 µM); 0.306 in experiment [2] (first compound 0.0003 µM); 0.28 in experiment [2] (first compound 0.003 µM); 0.151 in experiment [2] (first compound 0.03 µM). Moreover, the relative viability in experiment [3] (first compound 0.0003 µM) worked out at 0.574; in experiment [3] (first compound 0.003 µM), 0.676; in experiment [3] (first compound 0.03 µM), 0.436; in experiment [4] (first compound 0.0003 µM) it was 0.76; in experiment [4] (first compound 0.003 µM), 0.691; in experiment [4] (first compound 0.03 µM), 0.349. For the same cell line, the relative viability in experiment [5] (first compound 0.0003 µM) worked out at 0.705; in experiment [5] (first compound 0.003 µM) it was 0.906; in experiment [5] (first compound 0.03 µM) it was 0.615; in experiment [6] (first compound 0.0003 µM), 1.1; in experiment [6] (first compound 0.003 µM), 1.17; in experiment [6] (first compound 0.03 µM), 0.466.

NCI-H1975: the relative viability was determined as 0.35 in experiment [1] (first compound 0.0003 µM); 0.3 in experiment [1] (first compound 0.003 µM); 0.22 in experiment [1] (first compound 0.03 µM); 0.786 in experiment [2] (first compound 0.0003 µM); 0.502 in experiment [2] (first compound 0.003 µM); 0.23 in experiment [2] (first compound 0.03 µM). Moreover, the relative viability in experiment [3] (first compound 0.0003 µM) amounted to 0.925; in experiment [3] (first compound 0.003 µM), 0.736; in experiment [3] (first compound 0.03 µM), 0.307; in experiment [4] (first compound 0.0003 µM), 0.882; in experiment [4] (first compound 0.003 µM), 0.521; in experiment [4] (first compound 0.03 µM), 0.239. The relative viability was 0.711 in experiment [5] (first compound 0.0003 µM); 0.446 in experiment [5] (first compound 0.003 µM); 0.305 in experiment [5] (first compound 0.03 µM); 1.03 in experiment [6] (first compound 0.0003 µM); 0.635 in experiment [6] (first compound 0.003 µM); 0.24 in experiment [6] (first compound 0.03 µM).

In the case of NCI-H1793, the relative viability came out at 0.696 in experiment [1] (first compound 0.0003 µM); 0.463 in experiment [1] (first compound 0.003 µM); 0.24 in experiment [1] (first compound 0.03 µM); 0.287 in experiment [2] (first compound 0.0003 µM); 0.209 in experiment [2] (first compound 0.003 µM); 0.113 in experiment [2] (first compound 0.03 µM). Moreover, the relative viability in experiment [4] (first compound 0.0003 µM) stood at 0.576; in experiment [4] (first compound 0.003 µM), 0.368; in experiment [4] (first compound 0.03 µM), 0.196; in experiment [5] (first compound 0.0003 µM), 0.402; in experiment [5] (first compound 0.003 µM), 0.215; in experiment [5] (first compound 0.03 µM) it was 0.263. In addition, the relative viability in experiment [6] (first compound 0.0003 µM) was 0.368; in experiment [6] (first compound 0.003 µM), 0.29; in experiment [6] (first compound 0.03 µM), 0.204.
